Test results reported in patent EP4782445A1, “CDK KINASE INHIBITOR AND USE THEREOF” (Abbisko Therapeutics Co., Ltd., priority 2023, dated 2025).

Legend:
[1] = biological target: T1, CDK2/cyclin E1 (Homo sapiens, UniProt P24941); assay: In vitro biochemical kinase activity assay for CDK2/cyclin E1 (HTRF); settings: 1 µM ATP
T1 construct: purchased Carna
Experimental: I. In Vitro Biochemical Kinase Activity Assay for CDK2/Cyclin E1
The inhibitory effects of the compounds of the present invention on CDK2/cyclin E1 kinase activity were determined using a homogeneous time-resolved fluorescence (HTRF) assay. The experimental process was as follows: • 1. The kinase reaction was carried out in a 384-well plate. 15 nM CDK2/cyclin E1 kinase (Carna), 1 µM ATP, and 1 µM biotin-labeled substrate protein ATF2-biotin (Cisbio) were incubated at room temperature for 90 min in a buffer system composed of 10 mM MgCl2, 1 mM MnCl2, 1 mM DTT, and basal kinase buffer (Cisbio). • 2. The detection solution (Cisbio, containing reagents that specifically recognize phosphorylated ATF2 and ATF2-biotin proteins, respectively) was added. The plate was then sealed with a film (to protect from light and volatilization) and incubated at 25°C for 60 min. • 3. The plate was transferred to an Envision plate reader to detect fluorescence resonance energy transfer (FRET) signals. (The 665/615 ratio was calculated by reading the emission at 665 nm and 615 nM, respectively.) • 4. The IC50 values were determined by analyzing the inhibition at varying compound concentrations using Model 205 in the XLfit software.

[2] = biological target: T2, CDK4/cyclin D3 (Homo sapiens, UniProt P11802); assay: In vitro biochemical kinase activity assay for CDK4/cyclin D3 (HTRF); settings: unmarked data: 80 µM ATP in Step 1
T2 construct: purchased Carna
T2 sequence (P11802 whole entry): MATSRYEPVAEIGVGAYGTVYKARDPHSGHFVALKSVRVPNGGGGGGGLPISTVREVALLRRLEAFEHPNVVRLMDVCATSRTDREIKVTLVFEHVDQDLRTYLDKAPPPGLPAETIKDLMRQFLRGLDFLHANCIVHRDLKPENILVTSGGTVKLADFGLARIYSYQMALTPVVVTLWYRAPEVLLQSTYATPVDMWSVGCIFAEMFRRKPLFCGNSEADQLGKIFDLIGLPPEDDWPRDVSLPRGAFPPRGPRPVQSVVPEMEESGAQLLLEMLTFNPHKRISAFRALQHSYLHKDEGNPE
T2 sequence (P30281 whole entry partner): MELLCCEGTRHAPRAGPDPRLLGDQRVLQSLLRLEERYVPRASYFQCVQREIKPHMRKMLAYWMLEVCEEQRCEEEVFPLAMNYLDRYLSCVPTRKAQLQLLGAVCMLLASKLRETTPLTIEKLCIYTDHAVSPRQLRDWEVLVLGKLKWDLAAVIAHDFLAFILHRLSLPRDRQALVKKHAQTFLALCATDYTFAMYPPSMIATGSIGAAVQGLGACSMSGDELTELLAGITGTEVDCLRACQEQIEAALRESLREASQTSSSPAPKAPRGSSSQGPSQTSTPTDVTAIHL
Procedure, shortened: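 HTRF kinase reaction: 4.9 nM CDK4/cyclin D3, 1 mM (or 80 µM) ATP and 0.3 µM Rb-biotin substrate, 90 min at 30°C in buffer with 50 mM MgCl2 and 1 mM DTT.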

[3] = biological target: T3, CDK6/cyclin D3 (Homo sapiens, UniProt Q00534); assay: In vitro biochemical kinase activity assay for CDK6/cyclin D3 (HTRF); settings: unmarked data: 100 µM ATP in Step 1
T3 construct: purchased Carna
T3 sequence (Q00534 whole entry): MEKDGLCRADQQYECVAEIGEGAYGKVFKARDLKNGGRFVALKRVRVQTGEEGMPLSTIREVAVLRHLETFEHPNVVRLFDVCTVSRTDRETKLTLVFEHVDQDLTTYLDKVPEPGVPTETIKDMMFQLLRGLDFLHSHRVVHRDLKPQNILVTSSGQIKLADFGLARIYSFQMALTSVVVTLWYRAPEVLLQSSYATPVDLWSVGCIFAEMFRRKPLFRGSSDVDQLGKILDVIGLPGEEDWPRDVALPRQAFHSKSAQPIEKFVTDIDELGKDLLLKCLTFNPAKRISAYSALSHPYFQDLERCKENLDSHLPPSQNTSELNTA
T3 sequence (P30281 whole entry partner): as the sequence (P30281 whole entry partner) above
Procedure, shortened: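 HTRF assay: 0.02 nM CDK6/cyclin D3 incubated with 1 mM (or 100 µM) ATP and 0.3 µM Rb-biotin substrate at 30°C for 60 min in kinase buffer with 5 mM MgCl2 and 1 mM DTT.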

IC50 [1] [nM]	IC50 [2] [nM]	IC50 [3] [nM]	Structure (SMILES)
590	7.85	47.1	CC(C)n1c(C#Cc2nc(N[C@@H]3CCOC[C@H]3O)ncc2Cl)cnc1[C@@H](C)O [Example 31, (3 S,4R)-4-((5-chloro-4-((2-((R)-1-hydroxyethyl)-1-isopropyl-1H-imidazol-5-yl)ethynyl)pyrimidin-2-yl)amino)tetrahydro-2H-pyran-3-ol]
1850	1.83	11	CCN1CCN(Cc2ccc(Nc3ncc(Cl)c(C#Cc4cnc(C(C)(C)O)n4C(C)C)n3)nc2)CC1 [Example 41, 2-(5-((5-chloro-2-((5-((4-ethylpiperazin-1-yl)methyl)pyridin-2-yl)amino)pyrimidin-4-yl)ethynyl)-1-isopropyl-1H-imidazol-2-yl)propan-2-ol]
236	0.56	3.04	CC(C)n1c(C#Cc2nc(N[C@@H]3CCN(S(C)(=O)=O)C[C@H]3O)ncc2Cl)cnc1C(C)(C)O [Example 24, (3R,4R)-4-((5-chloro-4-((2-(2-hydroxypropan-2-yl)-1-isopropyl-1H-imidazol-5-yl)ethynyl)pyrimidin-2-yl)amino)-1-(methanesulfonyl)piperidin-3-ol]
3190	4.5	223	CC(C)n1c(C#Cc2cc(N[C@@H]3CCOC[C@H]3O)ncc2Cl)cnc1CN1CCC[C@H](O)C1 [Example 109, (S)-1-((5-((5-chloro-2-(((3 S,4R)-3-hydroxytetrahydro-2H-pyran-4-yl)amino)pyridin-4-yl)ethynyl)-1-isopropyl-1H-imidazol-2-yl)methyl)piperidin-3-ol]
